From PubChem BioAssay AID1745844 (Carcinogenic Potency Database (CPDB), 2022)
Calls of active or inactive are those of the source. No rule for the calls is given here.

Tested on: rodent lifetime carcinogenesis bioassay, tumor incidence TD50
Experiment: carcinogenic potency in animals, long-term in vivo studies, CPDB compilation (AID 1745844)

O=C(O)c1cccnc1
carcinogen call (mouse, strain Swiss albino, females, in drinking water, site: liver, lesion: several types, types named in the paper, dosed 139 weeks, study length 139 weeks): negative (inactive) | TD50 (mouse, strain Swiss albino, females, in drinking water, site: lung, lesion: one or several types, types not named, dosed 139 weeks, study length 139 weeks): 17000 mg/kg/day (inactive) | carcinogen call (mouse, strain Swiss albino, males, in drinking water, site: liver, lesion: several types, types named in the paper, dosed 119 weeks, study length 119 weeks): negative (inactive) | carcinogen call (mouse, strain Swiss albino, males, in drinking water, site: lung, lesion: one or several types, types not named, dosed 119 weeks, study length 119 weeks): negative (inactive)

O=C(O)C1=NN(c2ccc(S(=O)(=O)O)cc2)C(=O)C1N=Nc1ccc(S(=O)(=O)O)cc1 (stereo not drawn)
TD50 (mouse, strain Charles River CD1, females, in feed, site: all sites, lesion: malignant lymphoma, lymphocytic type, dosed 104 weeks, study length 104 weeks): 1430 mg/kg/day (inactive) | carcinogen call (mouse, strain Charles River CD1, females, in feed, site: any site (literature study), lesion: benign tumor, dosed 104 weeks, study length 104 weeks): negative (inactive) | TD50 (mouse, strain Charles River CD1, females, in feed, site: any site (literature study), lesion: malignant tumor, dosed 104 weeks, study length 104 weeks): 1560 mg/kg/day (inactive) | carcinogen call (mouse, strain Charles River CD1, females, in feed, site: liver, lesion: hepatocellular adenocarcinoma, dosed 104 weeks, study length 104 weeks): negative (inactive) | TD50 (mouse, strain Charles River CD1, females, in feed, site: liver, lesion: hepatocellular adenoma, dosed 104 weeks, study length 104 weeks): 200000 mg/kg/day (inactive) | carcinogen call (mouse, strain Charles River CD1, females, in feed, site: lung, lesion: alveolar/bronchiolar adenocarcinoma, dosed 104 weeks, study length 104 weeks): negative (inactive) | carcinogen call (mouse, strain Charles River CD1, females, in feed, site: lung, lesion: alveolar/bronchiolar adenoma, dosed 104 weeks, study length 104 weeks): negative (inactive) | TD50 (mouse, strain Charles River CD1, males, in feed, site: all sites, lesion: malignant lymphoma, lymphocytic type, dosed 104 weeks, study length 104 weeks): 11800 mg/kg/day (inactive) | TD50 (mouse, strain Charles River CD1, males, in feed, site: any site (literature study), lesion: benign tumor, dosed 104 weeks, study length 104 weeks): 388 mg/kg/day (inactive) | TD50 (mouse, strain Charles River CD1, males, in feed, site: any site (literature study), lesion: malignant tumor, dosed 104 weeks, study length 104 weeks): 1810 mg/kg/day (inactive) | TD50 (mouse, strain Charles River CD1, males, in feed, site: liver, lesion: hepatocellular adenocarcinoma, dosed 104 weeks, study length 104 weeks): 61100 mg/kg/day (inactive) | TD50 (mouse, strain Charles River CD1, males, in feed, site: liver, lesion: hepatocellular adenoma, dosed 104 weeks, study length 104 weeks): 2150 mg/kg/day (inactive) | carcinogen call (mouse, strain Charles River CD1, males, in feed, site: lung, lesion: alveolar/bronchiolar adenocarcinoma, dosed 104 weeks, study length 104 weeks): negative (inactive) | TD50 (mouse, strain Charles River CD1, males, in feed, site: lung, lesion: alveolar/bronchiolar adenoma, dosed 104 weeks, study length 104 weeks): 42500 mg/kg/day (inactive) | carcinogen call (rat, strain F344/DuCrj, females, in drinking water, site: any site (literature study), lesion: one or several types, types not named, dosed 104 weeks, study length 112 weeks): negative (inactive) | carcinogen call (rat, strain F344/DuCrj, females, in drinking water, site: liver, lesion: neoplastic nodule, dosed 104 weeks, study length 112 weeks): negative (inactive) | TD50 (rat, strain F344/DuCrj, females, in drinking water, site: uterus, lesion: endometrial stromal polyp, dosed 104 weeks, study length 112 weeks): 5780 mg/kg/day (inactive) | TD50 (rat, strain F344/DuCrj, males, in drinking water, site: abdominal cavity, lesion: mesothelioma, dosed 104 weeks, study length 112 weeks): 2820 mg/kg/day (inactive) | carcinogen call (rat, strain F344/DuCrj, males, in drinking water, site: any site (literature study), lesion: one or several types, types not named, dosed 104 weeks, study length 112 weeks): negative (inactive) | carcinogen call (rat, strain F344/DuCrj, males, in drinking water, site: liver, lesion: hepatocellular carcinoma, dosed 104 weeks, study length 112 weeks): negative (inactive) | carcinogen call (rat, strain F344/DuCrj, males, in drinking water, site: liver, lesion: neoplastic nodule, dosed 104 weeks, study length 112 weeks): negative (inactive) | carcinogen call (rat, strain Not specified, females, in feed, site: any site (literature study), lesion: several types, types named in the paper, dosed 64 weeks, study length 64 weeks): negative (inactive) | carcinogen call (rat, strain Not specified, females, in feed, site: liver, lesion: one or several types, types not named, dosed 64 weeks, study length 64 weeks): negative (inactive) | carcinogen call (rat, strain Not specified, males, in feed, site: any site (literature study), lesion: several types, types named in the paper, dosed 64 weeks, study length 64 weeks): negative (inactive) | carcinogen call (rat, strain Not specified, males, in feed, site: liver, lesion: one or several types, types not named, dosed 64 weeks, study length 64 weeks): negative (inactive) | carcinogen call (rat, strain Osborne-Mendel, both sexes, in feed, site: any site (literature study), lesion: malignant tumor, dosed 104 weeks, study length 104 weeks): negative (inactive) | carcinogen call (rat, strain Osborne-Mendel, both sexes, in feed, site: any site (literature study), lesion: several types, types named in the paper, dosed 104 weeks, study length 104 weeks): negative (inactive) | TD50 (rat, strain Osborne-Mendel, both sexes, in feed, site: liver, lesion: adenoma, dosed 104 weeks, study length 104 weeks): 231000 mg/kg/day (inactive)

C=C(C)CCl
TD50 (mouse, strain B6C3F1, females, by gavage, site: any site (literature study), lesion: several types, types named in the paper, dosed 103 weeks, study length 105 weeks): 149 mg/kg/day | TD50 (mouse, strain B6C3F1, females, by gavage, site: forestomach, lesion: squamous-cell carcinoma + squamous-cell papilloma, dosed 103 weeks, study length 105 weeks): 82.3 mg/kg/day | TD50 (mouse, strain B6C3F1, females, by gavage, site: forestomach, lesion: squamous-cell papilloma, dosed 103 weeks, study length 105 weeks): 87.7 mg/kg/day | TD50 (mouse, strain B6C3F1, females, by gavage, site: lung, lesion: alveolar/bronchiolar adenoma + alveolar/bronchiolar carcinoma, dosed 103 weeks, study length 105 weeks): 5180 mg/kg/day | TD50 (mouse, strain B6C3F1, males, by gavage, site: any site (literature study), lesion: several types, types named in the paper, dosed 103 weeks, study length 105 weeks): 402 mg/kg/day | TD50 (mouse, strain B6C3F1, males, by gavage, site: forestomach, lesion: squamous-cell carcinoma + squamous-cell papilloma, dosed 103 weeks, study length 105 weeks): 73.5 mg/kg/day | TD50 (mouse, strain B6C3F1, males, by gavage, site: forestomach, lesion: squamous-cell carcinoma, dosed 103 weeks, study length 105 weeks): 432 mg/kg/day | TD50 (mouse, strain B6C3F1, males, by gavage, site: forestomach, lesion: squamous-cell papilloma, dosed 103 weeks, study length 105 weeks): 96.2 mg/kg/day | TD50 (mouse, strain BDF1, females, inhaled, site: Harderian gland, lesion: adenoma, dosed 104 weeks, study length 104 weeks): 665 mg/kg/day | TD50 (mouse, strain BDF1, females, inhaled, site: forestomach, lesion: squamous-cell papilloma, dosed 104 weeks, study length 104 weeks): 1850 mg/kg/day | TD50 (mouse, strain BDF1, females, inhaled, site: liver, lesion: hepatocellular carcinoma, dosed 104 weeks, study length 104 weeks): 60000 mg/kg/day | TD50 (mouse, strain BDF1, females, inhaled, site: lung, lesion: alveolar/bronchiolar carcinoma, dosed 104 weeks, study length 104 weeks): 6750 mg/kg/day | TD50 (mouse, strain BDF1, males, inhaled, site: forestomach, lesion: squamous-cell carcinoma, dosed 104 weeks, study length 104 weeks): 11500 mg/kg/day | TD50 (mouse, strain BDF1, males, inhaled, site: forestomach, lesion: squamous-cell papilloma, dosed 104 weeks, study length 104 weeks): 2040 mg/kg/day | TD50 (mouse, strain BDF1, males, inhaled, site: lung, lesion: alveolar/bronchiolar adenoma, dosed 104 weeks, study length 104 weeks): 1020 mg/kg/day | TD50 (mouse, strain BDF1, males, inhaled, site: lung, lesion: alveolar/bronchiolar carcinoma, dosed 104 weeks, study length 104 weeks): 1570 mg/kg/day | TD50 (rat, strain Fischer 344, females, by gavage, site: any site (literature study), lesion: several types, types named in the paper, dosed 103 weeks, study length 105 weeks): 323 mg/kg/day | TD50 (rat, strain Fischer 344, females, by gavage, site: forestomach, lesion: papilloma, NOS, dosed 103 weeks, study length 105 weeks): 320 mg/kg/day | TD50 (rat, strain Fischer 344, females, by gavage, site: subcutaneous tissue, lesion: fibroma, dosed 103 weeks, study length 105 weeks): 524 mg/kg/day | TD50 (rat, strain Fischer 344, males, by gavage, site: any site (literature study), lesion: several types, types named in the paper, dosed 103 weeks, study length 105 weeks): 109 mg/kg/day | TD50 (rat, strain Fischer 344, males, by gavage, site: forestomach, lesion: papilloma, NOS, dosed 103 weeks, study length 105 weeks): 68.7 mg/kg/day | TD50 (rat, strain Fischer 344, males, by gavage, site: liver, lesion: hepatocellular adenoma + hepatocellular carcinoma + neoplastic nodule, dosed 103 weeks, study length 105 weeks): 714 mg/kg/day | TD50 (rat, strain Fischer 344, males, by gavage, site: testis, lesion: interstitial-cell tumor, dosed 103 weeks, study length 105 weeks): 54 mg/kg/day

CN(C)c1ccc(C(=N)c2ccc(N(C)C)cc2)cc1
TD50 (mouse, strain CBA, females, in feed, site: liver, lesion: hepatoma, dosed 52 weeks, study length 99 weeks): 67.7 mg/kg/day | TD50 (mouse, strain CBA, males, in feed, site: liver, lesion: hepatoma, dosed 52 weeks, study length 79 weeks): 77.5 mg/kg/day | TD50 (mouse, strain albino, females, in feed, site: liver, lesion: hepatoma, dosed 52 weeks, study length 79 weeks): 94.3 mg/kg/day | TD50 (mouse, strain albino, males, in feed, site: liver, lesion: hepatoma, dosed 52 weeks, study length 84 weeks): 39.2 mg/kg/day | TD50 (rat, strain Wilmslow Wistar, males, in feed, site: liver, lesion: hepatoma, dosed 87 weeks, study length 125 weeks): 11 mg/kg/day

C[C@H]1CCCCN1N=O
TD50 (rat, strain Sprague-Dawley, both sexes, in drinking water, site: any site (literature study), lesion: malignant tumor, dosed 104 weeks, study length 104 weeks): 13.2 mg/kg/day | TD50 (rat, strain Sprague-Dawley, both sexes, in drinking water, site: liver, lesion: liver-cell carcinoma, dosed 104 weeks, study length 104 weeks): 61.2 mg/kg/day | TD50 (rat, strain Sprague-Dawley, both sexes, in drinking water, site: liver, lesion: several types, types named in the paper, dosed 104 weeks, study length 104 weeks): 49.4 mg/kg/day | TD50 (rat, strain Sprague-Dawley, both sexes, in drinking water, site: several sites, sites named in the paper, lesion: ependymoblastoma, dosed 104 weeks, study length 104 weeks): 34.5 mg/kg/day

C=CC(OCC)OCC
TD50 (rat, strain Fischer 344, females, in drinking water, site: liver, lesion: hyperplastic nodule, dosed 102 weeks, study length 130 weeks): 131 mg/kg/day | TD50 (rat, strain Fischer 344, females, in drinking water, site: liver, lesion: several types, types named in the paper, dosed 102 weeks, study length 130 weeks): 123 mg/kg/day | TD50 (rat, strain Fischer 344, males, in drinking water, site: liver, lesion: hepatocellular carcinoma, dosed 102 weeks, study length 130 weeks): 262 mg/kg/day | TD50 (rat, strain Fischer 344, males, in drinking water, site: liver, lesion: hyperplastic nodule, dosed 102 weeks, study length 130 weeks): 266 mg/kg/day | TD50 (rat, strain Fischer 344, males, in drinking water, site: liver, lesion: several types, types named in the paper, dosed 102 weeks, study length 130 weeks): 124 mg/kg/day

Cn1cc(C(=O)O)c(=O)c2ccc(/C=C/c3ccc([N+](=O)[O-])o3)nc21
TD50 (mouse, strain ICR/Jcl, both sexes, in feed, site: forestomach, lesion: squamous-cell carcinoma, dosed 54 weeks, study length 54 weeks): 10.3 mg/kg/day | TD50 (mouse, strain ICR/Jcl, both sexes, in feed, site: lung, lesion: adenoma, dosed 54 weeks, study length 54 weeks): 8.03 mg/kg/day | TD50 (mouse, strain ICR/Jcl, both sexes, in feed, site: lung, lesion: carcinoma, dosed 54 weeks, study length 54 weeks): 21.9 mg/kg/day | TD50 (mouse, strain ICR/Jcl, both sexes, in feed, site: thymus gland, lesion: lymphatic leukemia, dosed 54 weeks, study length 54 weeks): 26.5 mg/kg/day

OCCOCCO
carcinogen call (rat, strain F344/DuCrj, females, in drinking water, site: any site (literature study), lesion: several types, types named in the paper, dosed 108 weeks, study length 108 weeks): negative (inactive) | carcinogen call (rat, strain F344/DuCrj, females, in drinking water, site: liver, lesion: neoplastic nodule, dosed 108 weeks, study length 108 weeks): negative (inactive) | carcinogen call (rat, strain F344/DuCrj, males, in drinking water, site: any site (literature study), lesion: several types, types named in the paper, dosed 108 weeks, study length 108 weeks): negative (inactive) | TD50 (rat, strain F344/DuCrj, males, in drinking water, site: liver, lesion: neoplastic nodule, dosed 108 weeks, study length 108 weeks): 34200 mg/kg/day (inactive) | TD50 (rat, strain Osborne-Mendel, males, in feed, site: urinary bladder, lesion: several types, types named in the paper, dosed 104 weeks, study length 104 weeks): 1660 mg/kg/day
